# Assay results reported in paper doi:10.1101/2023.02.21.529347v1 (biorxiv, 2023).
# How the values were obtained:
# Assay in all cases: apparent steady-state kinetics of F420H2-dependent alkene reduction
# [1] = target: T1, MSMEG_2027 (Mycolicibacterium smegmatis, UniProt A0QU01); assay type: biochemical; conditions: substrate inhibition constant; co-substrate F420H2
# T1 sequence (A0QU01 1-140): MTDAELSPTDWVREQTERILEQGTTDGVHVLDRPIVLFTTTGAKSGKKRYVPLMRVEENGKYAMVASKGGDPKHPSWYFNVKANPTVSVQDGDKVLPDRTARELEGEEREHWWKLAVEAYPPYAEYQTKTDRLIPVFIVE
# [2] = target: T2, MSMEG_2850 (Mycolicibacterium smegmatis, UniProt A0QW82); assay type: biochemical; conditions: substrate inhibition constant; co-substrate F420H2
# T2 sequence (A0QW82 1-140): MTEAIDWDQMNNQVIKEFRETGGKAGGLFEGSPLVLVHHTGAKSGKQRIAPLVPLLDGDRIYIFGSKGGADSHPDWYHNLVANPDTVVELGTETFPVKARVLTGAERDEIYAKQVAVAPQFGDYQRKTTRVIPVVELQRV
# [3] = target: T2, MSMEG_2850; conditions: co-substrate F420H2; apparent value
Structure (SMILES),Ki [1] [mM],Ki [2] [mM],Km [3] [µM]
"CC1=CC(=O)CC(C)(C)C1=O [7a, ketoisophorone]",26.9 ± 11.4,47.9 ± 10.0,–
"CC1=CC(=O)[C@H]2C[C@@H]1C2(C)C [9a, (1S,5S)-(-)-verbenone]",–,–,180 ± 30
